Holding throughout (format): biochemical
The target in one assay is Protein kinase C (PKC). As to the kind of experiment: Protein kinase C (PKC) assay. The following applies: rat brain preparation. Here is the method:
(§1) Other Kinases. c-Src kinase is purified from baculovirus infected insect cell lysates using an antipeptide monoclonal antibody directed against the N-terminal 2-17 amino acids as described previously by Fry, et al., Anticancer Drug Design, 1994;9:331-351. Protein kinase C (PKC.) is obtained as a rat brain preparation from Promega.
Other Kinases. An assay using the intracellular kinase domains of insulin receptor (INSr) is performed as described for the EGF receptor except that 10 mM manganese chloride is included in the reaction. The PKC assay is performed as previously described by Martiny-Baron, et al., J. Biol. Chem., 1993;268:9194-9197.

The target of assay [1] is T1, PDGFr (mouse PDGF-β receptor tyrosine kinase) (Mus musculus, UniProt P05622).
T1 construct: PCR primers are designed to amplify a fragment of DNA that codes for the intracellular tyrosine kinase domain; made in house; host or cells: Sf9 insect cells (baculovirus), cell lysate
The experiment in a line: PDGFr tyrosine kinase assay, 32P incorporation into glutamate-tyrosine copolymer. The following applies: 50 μM ATP. Here is the method:
(§2) Platelet Derived Growth Factor Receptor (PDGFr) and Fibroblast Growth Factor Receptor (FGFr). Full length cDNAs for the mouse PDGF-β and human FGF-1 (flg) receptor tyrosine kinases were obtained from J. Escobedo and are prepared as described in J. Biol. Chem., 1991;262:1482-1487. PCR primers are designed to amplify a fragment of DNA that codes for the intracellular tyrosine kinase domain. The fragment is melded into a baculovirus vector, cotransfected with AcMNPV DNA, and the recombinant virus isolated. SF9 insect cells are infected with the virus to overexpress the protein, and the cell lysate is used for the assay.
(§3) PDGFr and FGFr. […] Briefly, to each well is added 82.5 μL of incubation buffer containing 25 mM Hepes (pH 7.0), 150 mM NaCl, 0.1% Triton X-100, 0.2 mM PMSF, 0.2 mM sodium vanadate, 10 mM manganese chloride, and 750 μg/mL of poly (4:1) glutamate-tyrosine followed by 2.5 μL of inhibitor and 5 μL of enzyme lysate (7.5 μg/μL FGFR-TK or 6.0 μg/μL PDGFR-TK) to initiate the reaction. Following a 10 minute incubation at 25° C., 10 μL of [γ^32 P]ATP (0.4 μCi plus 50 μM ATP) is added to each well, and samples are incubated for an additional 10 minutes at 25° C. The reaction is terminated by the addition of 100 μL of 30% trichloroacetic acid (TCA) containing 20 mM sodium pyrophosphate and precipitation of material onto glass fiber filter mats (Wallac). […] Nonspecific activity is defined as radioactivity retained on the filters following incubation of samples with buffer alone; (no enzyme). Specific enzymatic activity is defined as total activity (enzyme plus buffer) minus nonspecific activity.

The target in assay [2] is T2, FGFr (human FGF-1 (flg) receptor tyrosine kinase) (Homo sapiens, UniProt P11362).
T2 construct: PCR primers are designed to amplify a fragment of DNA that codes for the intracellular tyrosine kinase domain; made in house; host or cells: Sf9 insect cells (baculovirus), cell lysate
As to the kind of experiment: FGFr tyrosine kinase assay, 32P incorporation into glutamate-tyrosine copolymer. The following applies: 50 μM ATP; read-out: FGFr IC50. As to the method:
as §2, §3

The target in another assay is T3, c-Src (Homo sapiens, UniProt P12931).
T3 construct: made in house; host or cells: baculovirus infected insect cells
The experiment in a line: c-Src kinase assay, 32P incorporation into polyglutamate-tyrosine. As to conditions: 5 μM ATP. Here is the method: as §1
c-Src. The antibody, covalently linked to 0.65-μm latex beads, is added to a suspension of insect cell lysis buffer comprised of 150 mM NaCl, 50 mM Tris pH 7.5, 1 mM DTT, 1% NP-40, 2 mM EGTA, 1 mM sodium vanadate, 1 mM PMSF, 1 μg/mL each of leupeptin, pepstatin, and aprotinin. Insect cell lysate containing the c-Src protein is incubated with these beads for 3 to 4 hours at 4° C. with rotation. At the end of the lysate incubation, the beads are rinsed three times in lysis buffer, resuspended in lysis buffer containing 10% glycerol, and frozen. These latex beads are thawed, rinsed three times in assay buffer which is comprised of 40 mM tris pH 7.5, 5 mM magnesium chloride, and suspended in the same buffer. In a Millipore 96-well plate with a 0.65 μm polyvinylidine membrane bottom are added the reaction components: 10-μL c-Src beads, 10 μL of 2.5 mg/mL polyglutamate-tyrosine substrate, 5 μM ATP containing 0.2 μCi labeled ^32 P-ATP, 5 μL DMSO containing inhibitors or as a solvent control, and buffer to make the final volume 125 μL. The reaction is started at room temperature by addition of the ATP and quenched 10 minutes later by the addition of 125 μL of 30% TCA, 0.1 M sodium pyrophosphate for 15 minutes on ice. The plate is then filtered and the wells washed with two 250-μL aliquots of 15% TCA, 0.1 M pyrophosphate. The filters are punched, counted in a liquid scintillation counter, and the data examined for inhibitory activity in comparison to a known inhibitor such as erbstatin. The method is described more fully in J. Med. Chem., 1994;37:598-609.

The target of assay [3] is T4, EGFr (Human EGF receptor tyrosine kinase) (Homo sapiens, UniProt P00533).
T4 construct: Human EGF receptor tyrosine kinase is isolated from A431 human epidermoid carcinoma cells; endogenous in cells; host or cells: A431 human epidermoid carcinoma cells (detergent lysate, Q Sepharose fractions)
As to the kind of experiment: EGFr tyrosine kinase assay. As to conditions: 10 μM ATP. As to the method: Epidermal Growth Factor Receptor (EGFr). Human EGF receptor tyrosine kinase is isolated from A431 human epidermoid carcinoma cells by the following method. Cells were grown in roller bottles in 50% Dulbecco's Modified Eagle medium and 50% HAM F-12 nutrient media (Gibco) containing 10% fetal calf serum. Approximately 10^9 cells are lysed in two volumes of buffer containing 20 mM 2-(4N-[2-[…]]piperazin-1-yl)ethanesulfonic acid (Hepes), pH 7.4, 5 mM ethylene glycol bis(2-aminoethyl ether) N,N,N',N'-tetraacetic acid (EGTA), 1% Triton X-100, 10% glycerol, 0.1 mM sodium orthovanadate, 5 mM sodium fluoride, 4 mM pyrophosphate, 4 mM benzamide, 1 mM dithiothreitol (DTT), 80 μg/mL aprotinin, 40 μg/mL leupeptin, and 1 mM phenylmethylsulfonyl fluoride (PMSF). After centrifugation at 25,000×g for 10 minutes, the supernatant is applied to a fast Q sepharose column (Pharmacia) and eluted with a linear gradient from 0.1 M NaCl to 0.4 M NaCl in 50 mM Hepes, 10% glycerol, pH 7.4. Enzyme active fractions are pooled, divided into aliquots, and stored at -100° C.
EGFr. Enzyme assays for IC50 determinations are performed in 96-well filter plates (Millipore MADVN6550). The total volume is 0.1 mL containing 20 mM Hepes, pH 7.4, 50 μM sodium vanadate, 40 mM magnesium chloride, 10 μM ATP containing 0.5 μCi of [^32 P]ATP, 20 μg of polyglutamic acid/tyrosine (Sigma Chemical Co., St. Louis, Mo.), 10 ng of EGF receptor tyrosine kinase and appropriate dilutions of inhibitor. All components except the ATP are added to the well, and the plate is incubated with shaking for 10 minutes at 25° C. The reaction is started by adding [^32 P]ATP, and the plate is incubated at 25° C. for 10 minutes. The reaction is terminated by addition of 0.1 mL of 20% trichloroacetic acid (TCA). The plate is kept at 4° C. for at least 15 minutes to allow the substrate to precipitate. The wells are then washed five times with 0.2 mL of 10% TCA, and ^32 P incorporation is determined with a Wallac beta plate counter.

Broadly, the IC50 is the concentration that inhibits the measured activity by half.

T1 sequence (P05622 599-961 limits assumed): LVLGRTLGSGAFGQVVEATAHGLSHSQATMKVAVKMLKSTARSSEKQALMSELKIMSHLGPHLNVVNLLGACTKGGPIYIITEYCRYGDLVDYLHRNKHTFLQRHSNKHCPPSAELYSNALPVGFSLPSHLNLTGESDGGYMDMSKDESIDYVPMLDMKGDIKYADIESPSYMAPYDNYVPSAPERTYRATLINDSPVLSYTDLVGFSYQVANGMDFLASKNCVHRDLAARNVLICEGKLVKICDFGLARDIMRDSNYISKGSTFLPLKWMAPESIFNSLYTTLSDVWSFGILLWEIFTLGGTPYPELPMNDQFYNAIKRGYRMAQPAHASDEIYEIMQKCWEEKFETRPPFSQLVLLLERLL
T2 sequence (P11362 478-767 limits assumed): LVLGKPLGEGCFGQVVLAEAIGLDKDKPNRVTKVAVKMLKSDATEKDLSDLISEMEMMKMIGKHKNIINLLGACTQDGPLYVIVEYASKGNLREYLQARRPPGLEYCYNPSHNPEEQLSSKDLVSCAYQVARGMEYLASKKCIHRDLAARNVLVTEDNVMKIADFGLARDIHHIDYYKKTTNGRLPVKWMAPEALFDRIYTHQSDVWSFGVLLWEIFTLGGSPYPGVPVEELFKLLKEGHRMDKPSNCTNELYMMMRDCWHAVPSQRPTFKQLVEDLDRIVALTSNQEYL
T3 sequence (P12931 whole entry, species assumed): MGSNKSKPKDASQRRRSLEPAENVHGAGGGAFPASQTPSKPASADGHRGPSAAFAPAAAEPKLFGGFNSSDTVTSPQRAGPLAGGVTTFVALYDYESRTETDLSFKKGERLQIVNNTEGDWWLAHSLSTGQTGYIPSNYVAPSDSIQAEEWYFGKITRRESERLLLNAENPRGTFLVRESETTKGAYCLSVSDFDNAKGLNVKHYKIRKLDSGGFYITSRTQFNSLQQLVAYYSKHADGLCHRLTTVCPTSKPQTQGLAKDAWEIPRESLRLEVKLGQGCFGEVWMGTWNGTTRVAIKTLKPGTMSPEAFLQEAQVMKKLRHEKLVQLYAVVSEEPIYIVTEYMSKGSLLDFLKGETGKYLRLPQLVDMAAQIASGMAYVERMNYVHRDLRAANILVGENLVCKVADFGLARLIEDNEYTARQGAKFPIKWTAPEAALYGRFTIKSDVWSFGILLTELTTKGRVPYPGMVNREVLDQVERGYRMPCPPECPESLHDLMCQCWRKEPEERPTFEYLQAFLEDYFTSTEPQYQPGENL
T4 sequence (P00533 25-1210): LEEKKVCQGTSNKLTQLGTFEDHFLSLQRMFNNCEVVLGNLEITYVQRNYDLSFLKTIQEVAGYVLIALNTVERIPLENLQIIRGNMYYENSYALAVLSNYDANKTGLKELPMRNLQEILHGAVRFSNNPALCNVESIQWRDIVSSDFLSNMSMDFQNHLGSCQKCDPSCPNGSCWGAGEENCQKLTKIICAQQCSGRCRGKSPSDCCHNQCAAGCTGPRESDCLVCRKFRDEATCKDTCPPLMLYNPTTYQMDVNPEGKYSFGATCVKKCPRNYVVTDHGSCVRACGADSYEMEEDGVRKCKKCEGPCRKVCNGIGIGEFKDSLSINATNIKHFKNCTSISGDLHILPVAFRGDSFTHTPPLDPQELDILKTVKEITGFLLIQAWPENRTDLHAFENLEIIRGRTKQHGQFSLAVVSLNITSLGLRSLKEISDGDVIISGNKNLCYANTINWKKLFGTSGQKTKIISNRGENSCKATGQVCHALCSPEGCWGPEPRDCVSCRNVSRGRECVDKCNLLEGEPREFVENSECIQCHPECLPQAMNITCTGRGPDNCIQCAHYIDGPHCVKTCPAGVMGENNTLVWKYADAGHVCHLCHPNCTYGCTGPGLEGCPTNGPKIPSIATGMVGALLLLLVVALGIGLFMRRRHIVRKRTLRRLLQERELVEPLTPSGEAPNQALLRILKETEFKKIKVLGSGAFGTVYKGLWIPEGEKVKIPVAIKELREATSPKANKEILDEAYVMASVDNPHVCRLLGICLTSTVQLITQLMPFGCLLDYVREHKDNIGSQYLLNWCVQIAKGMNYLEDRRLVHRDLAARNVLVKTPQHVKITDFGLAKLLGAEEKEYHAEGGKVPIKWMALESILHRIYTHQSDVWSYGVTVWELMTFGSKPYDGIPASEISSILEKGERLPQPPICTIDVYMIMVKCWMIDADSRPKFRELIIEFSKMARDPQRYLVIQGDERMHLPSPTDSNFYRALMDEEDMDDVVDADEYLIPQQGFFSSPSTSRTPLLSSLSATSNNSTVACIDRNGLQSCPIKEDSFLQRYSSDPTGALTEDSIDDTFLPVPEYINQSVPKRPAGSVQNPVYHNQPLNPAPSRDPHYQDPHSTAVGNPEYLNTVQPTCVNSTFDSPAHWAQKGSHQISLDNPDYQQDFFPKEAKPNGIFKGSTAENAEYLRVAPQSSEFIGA

On to `Cn1c(=O)c(-c2c(Cl)cccc2Cl)cc2cnc(N)cc21` [Example A, 7-amino-3-(2,6-dichlorophenyl)-1-methyl-1H-[1,6]naphthyridin-2-one], for which the IC50 against Protein kinase C (PKC) was found to be 50000 nM; in assay [1], 2500 nM; in assay [2], 280 nM; against c-Src, 350 nM.
For the molecule `CNc1cc2c(cn1)cc(-c1c(Cl)cccc1Cl)c(=O)n2C` [Example B, 3-(2,6-dichlorophenyl)-1-methyl-7-methylamino-1H-[1,6]naphthyridin-2-one], the values for the IC50 (in assay [1]; in assay [2]; on c-Src) were 3600 nM, 340 nM and 420 nM, respectively.
The corresponding values for `CCN(CC)CCNc1cc2c(cn1)cc(-c1c(Cl)cccc1Cl)c(=O)n2C` [Example D, 3-(2,6-dichlorophenyl)-7-[2-(diethylamino)ethylamino]-1-methyl-1H-[1,6]naphthyridin-2-one] are 16000 nM, 3700 nM and 13000 nM.
For `CCN(CC)CCCNc1cc2c(cn1)cc(-c1c(Cl)cccc1Cl)c(=O)n2C` [Example E, 3-(2,6-dichlorophenyl)-7-[3-(diethylamino)propylamino]-1-methyl-1H-[1,6]naphthyridin-2-one], the IC50 was found to be 4000 nM in assay [1], 220 nM in assay [2] and 300 nM against c-Src.
As to `CCN(CC)CCCCCNc1cc2c(cn1)cc(-c1c(Cl)cccc1Cl)c(=O)n2C` [Example G, 3-(2,6-dichlorophenyl)-7-[5-(diethylamino)pentylamino]-1-methyl-1H-[1,6]naphthyridin-2-one], the IC50 stood at 690 nM in assay [1], 70 nM in assay [2] and 20 nM at c-Src.
`CN1CCN(CCCCNc2cc3c(cn2)cc(-c2c(Cl)cccc2Cl)c(=O)n3C)CC1` [Example I, 3-(2,6-dichlorophenyl)-1-methyl-7-[4-(4-methylpiperazin-1-yl)butylamino]-1H-[1,6]naphthyridin-2-one]: the 50% inhibitory concentration (IC50) in assay [1] was 950 nM; against c-Src it was 40 nM.
The corresponding values for `CN1CCN(CCCCCNc2cc3c(cn2)cc(-c2c(Cl)cccc2Cl)c(=O)n3C)CC1` [Example J, 3-(2,6-dichlorophenyl)-1-methyl-7-[5-(4-methylpiperazin-1-yl)pentylamino]-1H-[1,6]naphthyridin-2-one] are 850 nM and 30 nM.
As for `Cn1c(=O)c(-c2c(Cl)cccc2Cl)cc2cnc(NCCCN3CCOCC3)cc21` [Example K, 3-(2,6-dichlorophenyl)-1-methyl-7-[3-(4-morpholino)propylamino]-1H-[1,6]naphthyridin-2-one], the IC50 is over 50000 nM against Protein kinase C (PKC), 4700 nM in assay [1], under 50000 nM in assay [3] and 360 nM on c-Src.
In the case of `Cn1c(=O)c(-c2c(Cl)cccc2Cl)cc2cnc(NCCCn3ccnc3)cc21` [Example L, 3-(2,6-dichlorophenyl)-7-[3-(imidazol-1-yl)propylamino]-1-methyl-1H-[1,6]naphthyridin-2-one], the IC50 in assay [1] came out at 1700 nM; against c-Src it was 540 nM.
With `Cn1c(=O)c(-c2c(Cl)cccc2Cl)cc2cnc(Nc3ccncc3)cc21` [Example N, 3-(2,6-dichlorophenyl)-1-methyl-7-(4-pyridylamino)-1H-[1,6]naphthyridin-2-one], the figures for the IC50 (in assay [1]; in assay [2]; at c-Src) were 9600 nM, 3300 nM and 550 nM, respectively.
The corresponding values for `COc1ccc(Nc2cc3c(cn2)cc(-c2c(Cl)cccc2Cl)c(=O)n3C)cc1` [Example O, 3-(2,6-dichlorophenyl)-7-[(4-methoxyphenyl)amino]-1-methyl-1H-[1,6]naphthyridin-2-one] are 1700 nM, 1200 nM and 1700 nM.
In the case of `Cn1c(=O)c(-c2c(Cl)cccc2Cl)cc2cnc(NCCCCN3CCOCC3)cc21` [Example Q, 3-(2,6-dichlorophenyl)-1-methyl-7-[4-(4-morpholino)butylamino]-1H-[1,6]naphthyridin-2-one], the values for the IC50 (in assay [1]; at c-Src) were 3100 nM and 50 nM, respectively.
As for `CCN(CC)CCCOc1ccc(Nc2cc3c(cn2)cc(-c2c(Cl)cccc2Cl)c(=O)n3C)cc1` [Example R, 3-(2,6-dichlorophenyl)-7-[(4-(3-(diethylamino)propoxy)phenyl)amino]-1-methyl-1H-[1,6]naphthyridin-2-one], the values for the IC50 (in assay [1]; in assay [2]; on c-Src) were 370 nM, 180 nM and 30 nM, respectively.
As for `CN1CCN(CCCOc2ccc(Nc3cc4c(cn3)cc(-c3c(Cl)cccc3Cl)c(=O)n4C)cc2)CC1` [Example T, 3-(2,6-dichlorophenyl)-1-methyl-7-[(4-(3-(4-methylpiperazin-1-yl)propoxy)phenyl)amino]-1H-[1,6]naphthyridin-2-one], the 50% inhibitory concentration (IC50) came out at 370 nM in assay [1] and 30 nM against c-Src.
The corresponding values for `CN1CCN(c2ccc(Nc3cc4c(cn3)cc(-c3c(Cl)cccc3Cl)c(=O)n4C)cc2)CC1` [Example U, 3-(2,6-dichlorophenyl)-1-methyl-7-[(4-(4-methylpiperazin-1-yl)phenyl)amino]-1H-[1,6]naphthyridin-2-one] are 260 nM and 20 nM.

For the origin of these results see patent US6150359A, “Naphthyridinones for inhibiting protein tyrosine kinase and cell cycle kinase mediated cellular proliferation” (Warner-Lambert Company, priority 2000, dated 2000).
